Measured values as given in publication PMC10954593, “Gastrodinol derivatives and prenylated flavones from the flower branch of Gastrodia elata” (Natural Products and Bioprospecting, 2024).
Values after ≈ are worked out from the molar mass of the structure shown. Read-outs that look alike come from different tables or passages of the source.

Experiments:
MRSA = assay: anti-MRSA activity (96-well culture plate, OD at 625 nm after 24 h); type: cell-based, methicillin-resistant Staphylococcus aureus; details: for MIC50 / MIC50 (50% minimum inhibitory concentration), anti-MRSA: 24 h; for MIC50: read-out: MIC50 (50% minimum inhibitory concentration), anti-MRSA; for inhibition at 100 µM: read-out: Inhibition rate (%) of MRSA; for anti-MRSA activity (in words): abstract statement
Experimental: Prepare samples with DMSO as a solvent into a solution with an initial concentration of 20 mM; Take a 96-well culture plate, dilute the sample to be measured, and add bacterial solution to each well, and the final concentration is 5 × 10^5 CFU/mL; Incubate at 37 °C for 24 h, and the microplate reader determines the OD value at 625 nm. The experiment also set up a media blank control, a bacterial control and a vancomycin-positive drug control.
MIC50 (50% minimum inhibitory concentration) is calculated according to the Reed & Muench method.

AChE = AChE (Homo sapiens, UniProt P22303); assay: biochemical; type: biochemical; details: for inhibition at 50 µM: concentration 50 μM, read-out: AChE inhibition rate, primary screening; for IC50: positive control tacrine, read-out: IC50 of AChE-inhibiting activity; for acetylcholinesterase inhibitory activity (in words): abstract statement
Sequence of AChE (P22303 32-614): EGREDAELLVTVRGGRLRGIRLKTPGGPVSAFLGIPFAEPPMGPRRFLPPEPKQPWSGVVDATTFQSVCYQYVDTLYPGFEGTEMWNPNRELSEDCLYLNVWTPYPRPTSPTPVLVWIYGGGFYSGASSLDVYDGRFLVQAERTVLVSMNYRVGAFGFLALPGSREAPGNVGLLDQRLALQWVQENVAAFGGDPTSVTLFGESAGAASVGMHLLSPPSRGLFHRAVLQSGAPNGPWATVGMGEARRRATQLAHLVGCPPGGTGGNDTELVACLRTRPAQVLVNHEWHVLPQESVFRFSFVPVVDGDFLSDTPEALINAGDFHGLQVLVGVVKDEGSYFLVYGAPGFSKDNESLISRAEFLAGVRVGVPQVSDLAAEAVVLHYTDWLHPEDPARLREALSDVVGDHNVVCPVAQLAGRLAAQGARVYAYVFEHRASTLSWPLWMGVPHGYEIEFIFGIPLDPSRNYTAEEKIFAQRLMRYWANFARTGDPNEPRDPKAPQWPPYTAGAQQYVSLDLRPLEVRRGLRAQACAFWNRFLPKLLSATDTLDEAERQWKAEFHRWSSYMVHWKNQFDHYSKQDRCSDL
Experimental: The reaction is carried out in a 96-well plate with plates plated by 200 μL/system with 3 replicates per sample; Detect the absorbance value of 405 nm every 30 s within 1 h after the addition of the color developer and substrate.

[1] = Staphylococcus aureus, MRSA, Reed & Muench method, 37 °C
[2] = Staphylococcus aureus, MRSA, concentration 100 μM, preliminary screen

SMILES: CC1(C)C=Cc2c(cc(O)c3c(=O)c(CC(O)C(C)(C)O)c(-c4ccc(O)cc4O)oc23)O1 (stereo not drawn) [Compound 6, 3-(2,3-dihydroxy-3-methylbutyl)-2-(2,4-dihydroxyphenyl)-5-hydroxy-8,8-dimethyl-4H,8H-pyrano[2,3-f] chromen-4-one]
- MIC50 (MRSA; [1]): 61.6 ± 1.56 µM (≈ 28 µg/mL)
- inhibition at 100 µM (MRSA; [2]): > 80%

SMILES: CN[C@H](CC(C)C)C(=O)N[C@H]1C(=O)N[C@@H](CC(N)=O)C(=O)N[C@H]2C(=O)N[C@H]3C(=O)N[C@H](C(=O)N[C@H](C(=O)O)c4cc(O)cc(O)c4-c4cc3ccc4O)[C@H](O)c3ccc(c(Cl)c3)Oc3cc2cc(c3O[C@@H]2O[C@H](CO)[C@@H](O)[C@H](O)[C@H]2O[C@H]2C[C@](C)(N)[C@H](O)[C@H](C)O2)Oc2ccc(cc2Cl)[C@H]1O [Vancomycin, reference compound]
- MIC50 (MRSA; Staphylococcus aureus, MRSA): 0.433 ± 0.002 µM (≈ 0.628 µg/mL)
- inhibition at 100 µM (MRSA; Staphylococcus aureus, MRSA): 98.86 ± 0.495%

SMILES: COc1cc2ccc3c(c2c(O)c1Cc1ccc(O)cc1)C(=O)C(Cc1ccc(O)cc1)(Cc1ccc(O)cc1)C3=O [Compound 3, 9-hydroxy-2,2,8-tris(4-hydroxybenzyl)-7-methoxy-1H-cyclopenta[a]naphthalene-1,3(2H)-dione]
- inhibition at 100 µM (MRSA; [2]): 13.5 ± 2.48%
- inhibition at 50 µM (AChE): > 60%
- IC50 (AChE): 15.7 ± 1.57 µM

SMILES: CC(C)=CCc1c(-c2ccc(O)cc2O)oc2c(CC=C(C)C)c(O)cc(O)c2c1=O [Compound 12, kuwanon C]
- MIC50 (50% minimum inhibitory concentration), anti-MRSA (MRSA; Reed & Muench method, 37 °C): 1.911 ± 0.018 µM (≈ 0.807 µg/mL)
- MIC50 (MRSA; [1]): 1.91 µM (≈ 0.807 µg/mL)
- inhibition at 100 µM (MRSA; [2]): > 80%
- anti-MRSA activity (in words) (MRSA): good activity

SMILES: CC1=CC2c3c(cc(-c4cc5ccc(O)cc5o4)c(Cc4ccc(O)cc4)c3O)OC3(c4ccc(O)cc4O)Oc4cc(O)ccc4C(C1)C23 (stereo not drawn) [Compound 9, 8a-(2,4-dihydroxyphenyl)-6-(6-hydroxybenzofuran-2-yl)-5-(4-hydroxybenzyl)-2-methyl-1,3a1,8a,13b-tetrahydro-3aH-benzo [3, 4] isochromeno[1,8-bc] chromene-4,11-diol]
- inhibition at 100 µM (MRSA; [2]): 63.95 ± 0.124%
- acetylcholinesterase inhibitory activity (in words) (AChE): good acetylcholinesterase inhibitory activity
- inhibition at 50 µM (AChE): > 60%
- IC50 (AChE): 0.488 ± 0.032 µM

SMILES: CC(C)=CCc1c(O)cc(O)c2c(=O)c3c(oc12)-c1ccc(O)cc1OC3C=C(C)C (stereo not drawn) [Compound 11, cyclomulberrin]
- MIC50 (50% minimum inhibitory concentration), anti-MRSA (MRSA; Reed & Muench method, 37 °C): 1.908 ± 0.014 µM (≈ 0.802 µg/mL)
- MIC50 (MRSA; [1]): 1.91 µM (≈ 0.802 µg/mL)
- inhibition at 100 µM (MRSA; [2]): > 80%
- anti-MRSA activity (in words) (MRSA): good activity

SMILES: COc1c(Cc2ccc(O)cc2)c(O)c2c3c(ccc2c1Cc1ccc(O)cc1)C(O)CCC3=O (stereo not drawn) [Compound 1, 1,5-dihydroxy-6,8-bis(4-hydroxybenzyl)-7-methoxy-2,3-dihydrophenanthren-4(1H)-one]
- MIC50 (MRSA; [1]): 22.06 ± 0.026 µM (≈ 10.4 µg/mL)
- inhibition at 100 µM (MRSA; [2]): > 80%

SMILES: COc1cc(O)c2c3c(ccc2c1Cc1ccc(O)cc1)C(=O)C(Cc1ccc(O)cc1)(Cc1ccc(O)cc1)C3=O [Compound 2, 9-hydroxy-2,2,6-tris(4-hydroxybenzyl)-7-methoxy-1H-cyclopenta[a]naphthalene-1,3(2H)-dione]
- inhibition at 100 µM (MRSA; [2]): 77.2 ± 1.61%
- inhibition at 50 µM (AChE): > 60%
- IC50 (AChE): 24.7 ± 0.732 µM

SMILES: Cc1ccc2c(c1)-c1cc(C3CC(=O)c4c(O)cc(O)cc4O3)c(O)cc1OC2(C)C (stereo not drawn) [Compound 5, 5,7-dihydroxy-2-(3-hydroxy-6,6,9-trimethyl-6H-benzo[c]chromen-2-yl) chroman-4-one]
- MIC50 (50% minimum inhibitory concentration), anti-MRSA (MRSA; Reed & Muench method, 37 °C): 4.46 ± 0.02 µM (≈ 1.87 µg/mL)
- MIC50 (MRSA; Reed & Muench method, 37 °C): 4.46 µM (≈ 1.87 µg/mL)
- MIC50 (MRSA; [1]): 4.4 µM (≈ 1.84 µg/mL)
- inhibition at 100 µM (MRSA; [2]): > 80%
- anti-MRSA activity (in words) (MRSA): good activity

SMILES: CC1=C[C@H]2c3c(O)cc(-c4cc5ccc(O)cc5o4)cc3O[C@@]3(c4ccc(O)cc4O)Oc4cc(O)ccc4[C@H](C1)[C@@H]23 [Compound 13, mulberrofuran G]
- MIC50 (50% minimum inhibitory concentration), anti-MRSA (MRSA; Reed & Muench method, 37 °C): 1.264 ± 0.005 µM (≈ 0.711 µg/mL)
- MIC50 (MRSA; [1]): 1.26 µM (≈ 0.711 µg/mL)
- inhibition at 100 µM (MRSA; [2]): > 80%
- anti-MRSA activity (in words) (MRSA): good activity
- acetylcholinesterase inhibitory activity (in words) (AChE): good acetylcholinesterase inhibitory activity
- inhibition at 50 µM (AChE): > 60%
- IC50 (AChE): 1.06 ± 0.011 µM
